From patent US11156599B2, “Assay for telomere length regulators” (The Johns Hopkins University, priority 2015, dated 2021)

Legend:
SL13 cells [1] = assay: Telomere length by Southern blot in continuously growing SL13 cells; type: cell-based, mouse
Procedure: Given that ATM inhibitor KU55933 treatment prevents telomere elongation by telomerase overexpression, whether KU55933 treatment shortens telomere lengths in continuously growing cells was tested. […] The distinct non-telomeric bands served as useful loading controls, confirming all lanes were equally loaded (FIG. 9B, pixel position 1 and 3).
Cell lines such as 293FT and HCT116 were grown in DMEM (Gibco) supplemented with 1% Penicillin/Streptomycin/Glutamine (PSG) and 10% heat inactivated FBS (Invitrogen). SL13 cells were grown in DMEM (Gibco) supplemented with 1% PSG and 10% Tet system approved FBS (Clontech, #631107). Final concentration of 2 μg/ml of doxycycline was added in the media to induce I-Sce1 expression. Typically cells were collected post 48 hours of doxcycline treatment. […]
(§1) To measure telomere lengths by Southern blot, genomic DNA was extracted from cell pellets collected at different population doublings using the Puregene Core Kit A™ (Qiagen). […] Labeled probe was counted and 10^6 counts/ml (telomere probe) or 10^4 counts/ml (ladder) was denatured at 100° C. for 5 minutes and added to the pre-hybridization solution and hybridized overnight at 65° C. Membranes were washed 3× 15 minutes each in 6× SSC and 1% SDS at 65° C., and 3× 15 minutes each in 1× SSC and 1% SDS at 65° C. and exposed to a phosphorimager screen and detected on a Fuji phosphorimager. […]

human HCT116 cells = assay: Telomere length in continuously growing HCT116 cells; type: cell-based; conditions: KU55933
SL13 cells [2] = assay: Telomere Southern blot after telomerase (mTR and mTERT) overexpression; type: cell-based, mouse; conditions: lentivirus expressing mTR and mTERT, 2 or 5 days in culture
Procedure: To examine the role of ATM in telomere elongation by an independent method, telomerase was overexpressed in the cell line, in the presence of ATM inhibition. It has been shown that overexpressing telomerase elongates telomere lengths in human cells. Cells were treated with KU55933 and then transduced with a lentivirus expressing both mTR and mTERT and grown for 2 or 5 days in culture and telomere lengths were assayed by Southern blot. Telomere lengths in cells overexpressing telomerase were rapidly elongated in just 5 days (data not shown). […] In addition, as discussed below, when cells are grown for several days, ATR may also compensate for the loss of ATM. […]
as §1

| SMILES | telomere lengths at various population doublings (SL13 cells [1]; SL13 cells, 10 μM KU55933) | telomere lengths with increasing cell PDs (human HCT116 cells) | telomere elongation by telomerase overexpression (SL13 cells [2]) | telomere length at various PDs (SL13 cells [1]; SL13 cells grown in the presence of Olaparib, Southern blot) |
| --- | --- | --- | --- | --- |
| O=c1cc(-c2cccc3c2Sc2ccccc2S3)oc(N2CCOCC2)c1 [KU55933] | gradually shortened with increasing cell PDs | shortened significantly | significantly blocked the telomere elongation | – |
| O=C(c1cc(Cc2n[nH]c(=O)c3ccccc23)ccc1F)N1CCN(C(=O)C2CC2)CC1 [Olaparib] | – | – | – | gradually increased after 25 PDs |
